Experimental data as given in PubChem BioAssay AID1918940 (Molecular Pharmacology Branch, DTP, NCI, 2023).

Test system: NCI-H211 complex spheroid viability
Assay: Anticancer human tumor NCI-H211 cell line growth inhibition [LSD1];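 further: luminescent viability read after seven days of drug exposure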;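 on viability, T/C: 100% = DMSO vehicle control viability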
Conditions: for IC50: curve of first compound; for viability, T/C: stronger effect = lower value
In short: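 Drug combinations with the LSD1 inhibitor iadademstat tested on tumor cells co-cultured as spheroids with endothelial cells and mesenchymal stem cells. Concentrations descended in half-log increments from clinical Cmax or 10 microM.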

[1] = second compound 0.1 µM, first compound 0.0316 µM
[2] = second compound 0.1 µM, first compound 0.1 µM
[3] = second compound 0.1 µM, first compound 0.316 µM
[4] = second compound 0.1 µM, first compound 1 µM
[5] = second compound 0.1 µM, first compound 3.16 µM
[6] = second compound 0.1 µM, first compound 10 µM
[7] = second compound 0.316 µM, first compound 0.0316 µM
[8] = second compound 0.316 µM, first compound 0.1 µM
[9] = second compound 0.316 µM, first compound 0.316 µM
[10] = second compound 0.316 µM, first compound 1 µM
[11] = second compound 0.316 µM, first compound 3.16 µM
[12] = second compound 0.316 µM, first compound 10 µM
[13] = second compound 1 µM, first compound 0.0316 µM
[14] = second compound 1 µM, first compound 0.1 µM
[15] = second compound 1 µM, first compound 0.316 µM
[16] = second compound 1 µM, first compound 1 µM
[17] = second compound 1 µM, first compound 3.16 µM
[18] = second compound 1 µM, first compound 10 µM
[19] = second compound 3.16 µM, first compound 0.0316 µM
[20] = second compound 3.16 µM, first compound 0.1 µM
[21] = second compound 3.16 µM, first compound 0.316 µM
[22] = second compound 3.16 µM, first compound 1 µM
[23] = second compound 3.16 µM, first compound 3.16 µM
[24] = second compound 3.16 µM, first compound 10 µM
[25] = second compound 10 µM, first compound 0.0316 µM
[26] = second compound 10 µM, first compound 0.1 µM
[27] = second compound 10 µM, first compound 0.316 µM
[28] = second compound 10 µM, first compound 1 µM
[29] = second compound 10 µM, first compound 3.16 µM
[30] = second compound 10 µM, first compound 10 µM

Row | SMILES | IC50 (second compound 0.1 µM) [nM] | IC50 (second compound 0.316 µM) [nM] | IC50 (second compound 1 µM) [nM] | IC50 (second compound 3.16 µM) [nM] | IC50 (second compound 10 µM) [nM] | viability, T/C [1] [%] | viability, T/C [2] [%] | viability, T/C [3] [%] | viability, T/C [4] [%] | viability, T/C [5] [%] | viability, T/C [6] [%] | viability, T/C [7] [%] | viability, T/C [8] [%] | viability, T/C [9] [%] | viability, T/C [10] [%] | viability, T/C [11] [%] | viability, T/C [12] [%] | viability, T/C [13] [%] | viability, T/C [14] [%] | viability, T/C [15] [%] | further results
1 | CC1(C)CCC(CN2CCN(c3ccc(C(=O)NS(=O)(=O)c4ccc(NCC5CCOCC5)c([N+](=O)[O-])c4)c(Oc4cnc5[nH]ccc5c4)c3)CC2)=C(c2ccc(Cl)cc2)C1 + NC1CCC(NC2CC2c2ccccc2)CC1 | 5790 | 5770 | > 10000 | < 31.6 | < 31.6 | 55.3 | 61.6 | 73.5 | 102 | 86.2 | 26.8 | 64.8 | 60.5 | 71.2 | 84.1 | 101 | 26 | 48.6 | 59 | 57.6 | viability, T/C [16]: 81.3%; viability, T/C [17]: 93.5%; viability, T/C [18]: 24.7%; viability, T/C [19]: 41.9%; viability, T/C [20]: 44.4%; viability, T/C [21]: 57.9%; viability, T/C [22]: 75.1%; viability, T/C [23]: 88.4%; viability, T/C [24]: 21.1%; viability, T/C [25]: 25.1%; viability, T/C [26]: 24.9%; viability, T/C [27]: 30%; viability, T/C [28]: 33.8%; viability, T/C [29]: 52.6%; viability, T/C [30]: 19.8%
2 | CC1COCCN1c1cc(C2(S(C)(=N)=O)CC2)nc(-c2ccnc3[nH]ccc23)n1 (stereo not given) + NC1CCC(NC2CC2c2ccccc2)CC1 | 331 | 184 | 297 | 188 | < 31.6 | 67.7 | 64.1 | 51.6 | 16.1 | 3.34 | 2.31 | 79.6 | 63 | 38.7 | 13.6 | 3.19 | 2.33 | 66.4 | 67.5 | 48.4 | viability, T/C [16]: 16.4%; viability, T/C [17]: 3.53%; viability, T/C [18]: 2.09%; viability, T/C [19]: 66.5%; viability, T/C [20]: 55.5%; viability, T/C [21]: 44.5%; viability, T/C [22]: 17.2%; viability, T/C [23]: 2.59%; viability, T/C [24]: 1.55%; viability, T/C [25]: 40.9%; viability, T/C [26]: 39%; viability, T/C [27]: 25.4%; viability, T/C [28]: 9.13%; viability, T/C [29]: 1.75%; viability, T/C [30]: 1.04%
